One block for each compound: values may come before it.
Assays:
[1] = target: T1, IRBIT bound to GST-EL (mouse IP3R1 amino acids 1-2217) (Mus musculus, UniProt P11881, N1264K); test: Dissociation of IRBIT from GST-EL by eluants (pulldown, immunoblot quantification); type: binding
T1 construct: construct a GST-IP3R1 (1-2217) vector (termed GST-EL); made in house; host or cells: Sf9 cells (baculovirus) for GST-EL; IRBIT from mouse cerebellum tissue extract
Method: Bound proteins were pulled down with glutathione-Sepharose, and eluted with glutathione (Glu) (a) or 0.1 to 10 μM IP3 (a), IP2 (b), IP4 (c), IP6 (d), or ATP (e). IRBIT in the extract was analyzed with anti-IRBIT antibody and Alexa 680-conjugated secondary antibody (“a” (lower panel) and panels “b” to “e”). GST-EL in the glutathione and 0.1 to 10 μM IP3 eluate was analyzed with anti-GST antibody (a, upper panel). […] The relative intensity was plotted against the concentration of an eluant. Results are shown as the mean±standard deviation from at least three independent experiments.
For dissociation experiments, IRBIT in the diluted high salt extract was pulled down with GST-EL for precipitation and washed as described above. To resins, 100 μl of a wash buffer containing IP3, inositol 4,5-bisphosphate (IP2) (Dojindo), inositol 1,3,4,5-tetrakisphosphate (IP4) (Calbiochem), inositol 1,2,3,4,5,6-hexakisphosphate (IP6) (Calbiochem) or ATP (Amersham Pharmacia Biotech) (0.1, 0.3, 1, 3 or 10 μM) were added. After incubation on ice for 10 minutes, samples were centrifuged at 10,000 rpm for 1 minute, and the supernatant was subjected to immunoblot analysis with anti-IRBIT antibody or goat anti-GST antibody (Amersham Pharmacia Biotech). For quantification, Alexa 680-conjugated goat anti-rabbit IgG (Molecular Probes) was used as a secondary antibody. The fluorescence intensity of the immunoreactive bands of IRBIT was measured using the Odyssey infrared imaging system (Aloka). Quantitative data (the mean±SD from at least three independent experiments) is expressed as a percentage of the amount of IRBIT in 10 μM IP3 eluate.
IRBIT in the high salt extract from the mouse cerebellar crude microsome was trapped with GST-EL. Then elution was attempted with 0.1 to 10 μM IP3, and other inositolpolyphosphates, IP2, IP4, IP6 or ATP. […] It was confirmed that GST-EL was not detected (FIG. 8Aa, upper panel), even with longer exposure. […]

[2] = target: N-terminal region of IP3R1 (amino acids 1-604) (Mus musculus, UniProt P11881); conditions: cited from earlier work
[3] = target: T2, GST-EL (mouse IP3R1 amino acids 1-2217) (Mus musculus, UniProt P11881, N1264K); test: GST pulldown with GST-EL; type: binding; conditions: GFP fusion proteins in Cos-7 cell lysates
T2 construct: construct a GST-IP3R1 (1-2217) vector (termed GST-EL); made in house; host or cells: Sf9 cells (baculovirus)
Method: Mouse cerebellar cytosolic fraction was diluted 2-fold with 10 mM Hepes (pH 7.4), 200 mM NaCl, 2 mM EDTA, 1 mM 2-ME and 0.02% Triton X-100. The high salt extract was diluted 5-fold with 10 mM Hepes (pH 7.4), 2 mM EDTA, 1 mM 2-ME and 0.01% Triton X-100. The diluted fractions (the final NaCl concentration of both fractions was 100 mM) were incubated with 20 μg of GST-EL or GST for 2 hours at 4° C. After adding 10 μl of glutathione-Sepharose and another 2 hours of incubation, the resins were washed 5 times with a wash buffer (10 mM Hepes (pH 7.4), 100 mM NaCl, 2 mM EDTA, 1 mM 2-ME, and 0.01% Triton X-100), and bound proteins were eluted with 20 mM glutathione.
The eluted proteins were analyzed by Western blotting with anti-IRBIT antibody. For dephosphorylation, the diluted high salt extract was incubated in the presence of or the absence of Escherichia coli alkaline phosphatase (Toyobo) with 2 mM MgCl2 for 30 minutes at 37° C. 5 mM EDTA was added, and then the resultant was subjected to pulldown assay as described above.
For the determination of the IP3R1-interacting region of IRBIT, Cos-7 cells expressing GFP-tagged full-length IRBIT or its truncated mutants were lysed in a lysis buffer (10 mM Hepes (pH7.4), 100 mM NaCl, 2 mM EDTA, 1 mM 2-ME, 0.5% Nonidet P-40, and protease inhibitor) for 30 minutes at 4° C., followed by centrifugation (100,000×g, 30 minutes). The supernatants were subjected to pulldown assay with GST-EL or GST as described above, and bound proteins were subjected to immunoblot analysis with anti-GFP antibody (Medical & Biological Laboratories).

T2 sequence (P11881 1-2217 N1264K): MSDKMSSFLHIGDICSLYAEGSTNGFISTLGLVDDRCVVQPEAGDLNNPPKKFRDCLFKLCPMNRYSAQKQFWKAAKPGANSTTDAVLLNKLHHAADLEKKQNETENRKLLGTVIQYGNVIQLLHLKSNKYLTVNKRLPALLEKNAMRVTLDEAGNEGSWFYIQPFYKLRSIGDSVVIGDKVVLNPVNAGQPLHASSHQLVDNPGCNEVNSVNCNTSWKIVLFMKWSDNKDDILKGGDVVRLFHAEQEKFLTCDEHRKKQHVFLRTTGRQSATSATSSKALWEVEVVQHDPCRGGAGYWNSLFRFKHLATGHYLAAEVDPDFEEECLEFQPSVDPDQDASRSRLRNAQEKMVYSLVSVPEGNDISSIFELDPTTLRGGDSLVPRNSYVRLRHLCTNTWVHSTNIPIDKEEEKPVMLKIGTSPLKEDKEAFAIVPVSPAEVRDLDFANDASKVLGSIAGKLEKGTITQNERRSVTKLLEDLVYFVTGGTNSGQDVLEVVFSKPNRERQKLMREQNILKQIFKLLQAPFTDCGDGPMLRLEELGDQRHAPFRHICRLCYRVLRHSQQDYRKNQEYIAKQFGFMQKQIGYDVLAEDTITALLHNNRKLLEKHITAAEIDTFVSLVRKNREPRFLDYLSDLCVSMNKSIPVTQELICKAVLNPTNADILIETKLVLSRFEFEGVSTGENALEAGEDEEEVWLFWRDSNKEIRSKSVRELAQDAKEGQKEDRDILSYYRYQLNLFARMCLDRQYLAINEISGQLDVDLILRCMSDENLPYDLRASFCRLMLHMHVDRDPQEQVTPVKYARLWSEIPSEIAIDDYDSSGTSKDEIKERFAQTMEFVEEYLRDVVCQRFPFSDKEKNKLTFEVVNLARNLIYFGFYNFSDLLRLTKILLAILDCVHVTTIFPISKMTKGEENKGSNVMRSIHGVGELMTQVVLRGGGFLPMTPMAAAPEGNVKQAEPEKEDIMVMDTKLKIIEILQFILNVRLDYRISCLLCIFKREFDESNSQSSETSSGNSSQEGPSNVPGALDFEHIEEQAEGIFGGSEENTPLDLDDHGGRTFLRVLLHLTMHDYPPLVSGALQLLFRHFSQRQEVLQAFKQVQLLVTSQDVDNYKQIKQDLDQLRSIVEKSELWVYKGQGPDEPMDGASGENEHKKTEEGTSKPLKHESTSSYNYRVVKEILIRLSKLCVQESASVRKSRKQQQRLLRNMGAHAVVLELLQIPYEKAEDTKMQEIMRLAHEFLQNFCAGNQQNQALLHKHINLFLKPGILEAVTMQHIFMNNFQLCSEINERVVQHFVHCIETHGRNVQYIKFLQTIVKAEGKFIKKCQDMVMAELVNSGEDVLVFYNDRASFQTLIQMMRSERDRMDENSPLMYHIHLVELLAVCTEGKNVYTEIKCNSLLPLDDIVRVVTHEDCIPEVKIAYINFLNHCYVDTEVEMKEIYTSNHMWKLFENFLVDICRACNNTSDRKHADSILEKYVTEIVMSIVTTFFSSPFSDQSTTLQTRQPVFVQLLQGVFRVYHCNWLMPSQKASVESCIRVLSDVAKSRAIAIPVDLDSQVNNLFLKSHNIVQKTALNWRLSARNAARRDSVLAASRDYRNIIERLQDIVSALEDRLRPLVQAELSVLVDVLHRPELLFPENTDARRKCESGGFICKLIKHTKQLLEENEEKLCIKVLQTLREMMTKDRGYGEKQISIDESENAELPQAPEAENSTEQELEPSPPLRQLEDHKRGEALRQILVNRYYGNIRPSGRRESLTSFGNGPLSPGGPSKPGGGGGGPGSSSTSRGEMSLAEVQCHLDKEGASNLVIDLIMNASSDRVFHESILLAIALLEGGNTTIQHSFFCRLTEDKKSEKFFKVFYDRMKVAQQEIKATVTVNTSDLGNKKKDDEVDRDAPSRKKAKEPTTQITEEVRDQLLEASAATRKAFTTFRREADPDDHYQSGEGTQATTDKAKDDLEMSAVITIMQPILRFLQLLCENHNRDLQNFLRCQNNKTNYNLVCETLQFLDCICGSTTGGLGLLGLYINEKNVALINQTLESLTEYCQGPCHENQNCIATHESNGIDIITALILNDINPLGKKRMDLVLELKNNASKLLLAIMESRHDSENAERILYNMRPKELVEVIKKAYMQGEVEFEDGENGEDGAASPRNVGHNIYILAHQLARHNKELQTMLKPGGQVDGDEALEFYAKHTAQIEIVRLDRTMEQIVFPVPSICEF
T1 sequence (P11881 1-2217 N1264K): as above
Chain of N-terminal region of IP3R1 (amino acids 1-604) (P11881 1-604): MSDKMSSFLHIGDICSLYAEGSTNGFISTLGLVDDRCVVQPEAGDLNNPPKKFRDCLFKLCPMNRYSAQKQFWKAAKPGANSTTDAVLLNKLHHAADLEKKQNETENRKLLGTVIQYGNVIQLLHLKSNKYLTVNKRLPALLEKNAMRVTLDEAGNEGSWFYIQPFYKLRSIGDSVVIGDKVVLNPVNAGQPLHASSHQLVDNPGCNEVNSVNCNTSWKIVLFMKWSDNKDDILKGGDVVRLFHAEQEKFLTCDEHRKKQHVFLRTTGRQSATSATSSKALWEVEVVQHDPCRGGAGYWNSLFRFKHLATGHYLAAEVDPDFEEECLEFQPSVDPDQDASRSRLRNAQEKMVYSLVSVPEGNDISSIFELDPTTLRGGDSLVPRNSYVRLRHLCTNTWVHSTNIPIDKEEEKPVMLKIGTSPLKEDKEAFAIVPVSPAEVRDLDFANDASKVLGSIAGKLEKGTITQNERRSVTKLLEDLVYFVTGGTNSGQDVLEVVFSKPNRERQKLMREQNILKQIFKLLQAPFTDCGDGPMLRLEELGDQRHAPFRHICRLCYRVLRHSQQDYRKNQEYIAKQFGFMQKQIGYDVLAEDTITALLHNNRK

interaction with GST-EL [3]: bound to GST-EL efficiently
Compound: GFP-IRBIT (1 to 277): GFP-tagged deletion mutant of IRBIT, amino acids 1-277

interaction with GST-EL [3]: much weaker
Compound: GFP-IRBIT (1-104): GFP-tagged deletion mutant of IRBIT, amino acids 1-104 (N-terminal region)

interaction with GST-EL [3]: bound to GST-EL efficiently
Compound: GFP-IRBIT: GFP-tagged full-length IRBIT expressed in Cos-7 cells

Second part, the compound before the results:

Compound: Nc1ncnc2c1ncn2[C@@H]1O[C@H](COP(=O)(O)OP(=O)(O)OP(=O)(O)O)[C@@H](O)[C@H]1O [ATP]
dissociation of IRBIT from GST-EL ([1]; 10 μM eluant): did not dissociate

Compound: O=P(O)(O)O[C@@H]1[C@H](O)[C@H](O)[C@@H](OP(=O)(O)O)[C@H](OP(=O)(O)O)[C@H]1O [IP3, inositol 1,4,5-trisphosphate]
EC50 ([1]; pH 7.4 and 100 mM NaCl, IRBIT from mouse cerebellar high salt extract, read-out: EC50 (IP3 concentration required for half (50%)-maximal dissociation of IRBIT from GST-EL)): ~500 nM
dissociation efficiency relative to other inositol polyphosphates ([1]; versus IP2, IP4, IP6): approximately 50 times
affinity lower than the Kd value determined by a conventional assay ([2]; pH 7.4 and 150 mM NaCl versus conventional assay): approximately 7.5 fold
Kd ([2]; physiological conditions (pH 7.4 and 150 mM NaCl), read-out: Kd of IP3 binding): 336 nM

Compound: GFP-IRBIT (105-530): GFP-tagged deletion mutant of IRBIT, amino acids 105-530, lacking the N-terminal region
interaction with GST-EL [3]: did not interact with GST-EL

Reference: US20050181450A1, “Novel inositol 1,4,5-trisphosphate (IP3) receptor-binding protein and an IP3 indicator” (priority 2002, published 2005)
